Values joined by “and” are separate entries in the source; they are usually repeats but may differ in a detail not shown here. Equal entries are not always repeated. Toxic doses and inconclusive results are not listed. The calls were made as follows: active = survival T/C of 150% or more; inactive = T/C below 125% in these data.
Tested on: P388 leukemia ip, CD2F1 mice, survival T/C
Test: NCI In Vivo Anticancer Drug Screen. Data for tumor model P388 Leukemia (intraperitoneal) in CD2F1 (CDF1) mice
Details: endpoint: median survival time, higher = longer survival
Method in brief: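 Mice carrying the transplanted tumor received test compound or vehicle. Survival was recorded in each group, and the value is the treated-group measurement divided by that of the vehicle-treated control group.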

[1] = dose: 6.25 mg/kg/injection, schedule: Q01DX005 (ip), vehicle: saline with Tween-80
[2] = dose: 12.5 mg/kg/injection, schedule: Q01DX005 (ip), vehicle: saline with Tween-80
[3] = dose: 50.0 mg/kg/injection, schedule: Q01DX005 (ip), vehicle: saline with Tween-80
[4] = dose: 50.0 mg/kg/injection, schedule: Q01DX009 (ip), vehicle: Klucel (hydroxypropylcellulose) (HPC)
[5] = dose: 100.0 mg/kg/injection, schedule: Q01DX005 (ip), vehicle: saline with Tween-80
[6] = dose: 200.0 mg/kg/injection, schedule: Q01DX005 (ip), vehicle: saline with Tween-80
[7] = dose: 50.0 mg/kg/injection, schedule: Q01DX005 (ip), vehicle: Klucel (hydroxypropylcellulose) (HPC)
[8] = dose: 100.0 mg/kg/injection, schedule: Q01DX005 (ip), vehicle: Klucel (hydroxypropylcellulose) (HPC)
[9] = dose: 200.0 mg/kg/injection, schedule: Q01DX005 (ip), vehicle: Klucel (hydroxypropylcellulose) (HPC)
[10] = dose: 100.0 mg/kg/injection, schedule: Q04DX002 (ip), vehicle: saline with Tween-80
[11] = dose: 200.0 mg/kg/injection, schedule: Q04DX002 (ip), vehicle: saline with Tween-80
[12] = dose: 400.0 mg/kg/injection, schedule: Q04DX002 (ip), vehicle: saline with Tween-80
[13] = dose: 50.0 mg/kg/injection, schedule: Q01DX009 (ip), vehicle: saline with Tween-80
[14] = dose: 100.0 mg/kg/injection, schedule: Q01DX009 (ip), vehicle: saline with Tween-80
[15] = dose: 200.0 mg/kg/injection, schedule: Q01DX009 (ip), vehicle: saline with Tween-80
[16] = dose: 25.0 mg/kg/injection, schedule: Q01DX009 (ip), vehicle: saline with Tween-80
[17] = dose: 12.5 mg/kg/injection, schedule: Q01DX009 (ip), vehicle: saline with Tween-80

Measured: T/C

CCCCCCCCCCCCCCCCCC(=O)[O][Pb]([CH3])([CH3])[CH3]
inactive: dose: 1.25 mg/kg/injection, schedule: Q01DX009 (ip), vehicle: Klucel (hydroxypropylcellulose) (HPC) 107 % of control | dose: 2.5 mg/kg/injection, schedule: Q01DX009 (ip), vehicle: Klucel (hydroxypropylcellulose) (HPC) 113 % of control | dose: 5.0 mg/kg/injection, schedule: Q01DX009 (ip), vehicle: Klucel (hydroxypropylcellulose) (HPC) 101 % of control | dose: 6.25 mg/kg/injection, schedule: Q04DX003 (ip), vehicle: Klucel (hydroxypropylcellulose) (HPC) 94 % of control | dose: 12.5 mg/kg/injection, schedule: Q04DX003 (ip), vehicle: Klucel (hydroxypropylcellulose) (HPC) 111 % of control | dose: 25.0 mg/kg/injection, schedule: Q04DX003 (ip), vehicle: Klucel (hydroxypropylcellulose) (HPC) 92 % of control

O=[N+]([O-])c1c(Nc2ccccc2)n(-c2ccccc2)c2ccc(O)cc12
inactive: dose: 3.12 mg/kg/injection, schedule: Q01DX005 (ip), vehicle: saline with Tween-80 92 % of control | [1] 102 % of control | [2] 90 % of control and 92 % of control | [3] 86 % of control

COC(=O)CC1(C(=O)OC)C2=C(C(C(=O)C(F)F)CC2)N2CCCC21 (configuration not stated)
inactive: dose: 12.5 mg/kg/injection, schedule: Q01DX001 (ip), vehicle: Klucel (hydroxypropylcellulose) (HPC) 94 % of control | dose: 25.0 mg/kg/injection, schedule: Q01DX001 (ip), vehicle: Klucel (hydroxypropylcellulose) (HPC) 97 % of control | dose: 50.0 mg/kg/injection, schedule: Q01DX001 (ip), vehicle: Klucel (hydroxypropylcellulose) (HPC) 100 % of control

O=C1CCCC(C(Sc2ccccc2)(Sc2ccccc2)Sc2ccccc2)C1 (configuration not stated)
inactive: [4] 99 % of control | dose: 100.0 mg/kg/injection, schedule: Q01DX009 (ip), vehicle: Klucel (hydroxypropylcellulose) (HPC) 95 % of control | dose: 200.0 mg/kg/injection, schedule: Q01DX009 (ip), vehicle: Klucel (hydroxypropylcellulose) (HPC) 93 % of control

C=C1CC2(OC1=O)C(C1COC(C)(C)O1)OC1OC(C)(C)OC12 (configuration not stated)
inactive: dose: 25.0 mg/kg/injection, schedule: Q04DX002 (ip), vehicle: saline 96 % of control | [3] 105 % of control | dose: 50.0 mg/kg/injection, schedule: Q04DX002 (ip), vehicle: saline 99 % of control | [5] 110 % of control | dose: 100.0 mg/kg/injection, schedule: Q04DX002 (ip), vehicle: saline 104 % of control | [6] 105 % of control

O=C(O)C(CS)NC1CC(=O)N(Cc2ccccc2)C1=O (configuration not stated)
inactive: [7] 110 % of control | [8] 103 % of control | [9] 103 % of control

Cc1[nH]c2c(ccc3c2ccc2c(=O)c(Cl)c(C)[nH]c23)c(=O)c1Cl
inactive: [3] 96 % of control | [5] 95 % of control | [6] 94 % of control

ClCSc1nc2ccccc2o1
inactive: dose: 50.0 mg/kg/injection, schedule: Q04DX002 (ip), vehicle: saline with Tween-80 102 % of control | [10] 102 % of control | [11] 107 % of control

Cc1cc2c(c(=O)o1)C1=S(SC(c3ccccc3)=C1)S2 (configuration not stated)
inactive: [10] 90 % of control | [11] 99 % of control | [12] 105 % of control

CC(=O)O/N=C/c1cc[n+](C)cc1
inactive: dose: 25.0 mg/kg/injection, schedule: Q04DX003 (ip), vehicle: saline 105 % of control | dose: 50.0 mg/kg/injection, schedule: Q04DX003 (ip), vehicle: saline 101 % of control | dose: 100.0 mg/kg/injection, schedule: Q04DX003 (ip), vehicle: saline 90 % of control

NC(=O)CCC(NC(=O)OCC1c2ccccc2-c2ccccc21)C(=O)O (configuration not stated)
inactive: [7] 104 % of control | [8] 103 % of control | [9] 104 % of control

CCN(CC)c1ccc(/C=N\Nc2ccc([N+](=O)[O-])cn2)cc1
inactive: [3] 93 % of control | [5] 90 % of control | [6] 87 % of control

O=c1oc2ccc(Cl)cc2c(=O)n1-c1cc(Cl)ccc1[N+](=O)[O-]
inactive: dose: 50.0 mg/kg/injection, schedule: Q01DX005 (ip), vehicle: saline 100 % of control | dose: 100.0 mg/kg/injection, schedule: Q01DX005 (ip), vehicle: saline 99 % of control | dose: 200.0 mg/kg/injection, schedule: Q01DX005 (ip), vehicle: saline 104 % of control

O=C1C2=C(OCCO2)C(=O)C2=C1OCCO2
inactive: [10] 99 % of control | [11] 111 % of control | [12] 106 % of control

O=C1CN(c2ccccc2)C(=O)CN1/N=C/c1ccc[nH]1
inactive: [1] 95 % of control | [2] 100 % of control | dose: 25.0 mg/kg/injection, schedule: Q01DX005 (ip), vehicle: saline with Tween-80 97 % of control

OC1(c2ccccc2)c2cccc(Cl)c2C(O)(c2ccccc2)c2c(Cl)cccc21 (configuration not stated)
inactive: [13] 99 % of control | [14] 99 % of control | [15] 97 % of control

CCOC(=O)C(=CC=C(C(=O)OCC)C(=O)OCC)C(=O)OCC
inactive: [10] 112 % of control | [11] 113 % of control | [12] 115 % of control

Cc1c(CCl)cc([N+](=O)[O-])cc1CCl
inactive: dose: 6.25 mg/kg/injection, schedule: Q01DX009 (ip), vehicle: Klucel (hydroxypropylcellulose) (HPC) 99 % of control | dose: 12.5 mg/kg/injection, schedule: Q01DX009 (ip), vehicle: Klucel (hydroxypropylcellulose) (HPC) 112 % of control and 114 % of control (2×) | dose: 25.0 mg/kg/injection, schedule: Q01DX009 (ip), vehicle: Klucel (hydroxypropylcellulose) (HPC) 116 % of control and 117 % of control and 120 % of control | [4] 114 % of control and 117 % of control

CC(C)C1=C(O)C2=C(C(=O)C1=O)C1(C)CCCC(C)(C)C1CC2O (configuration not stated)
inactive: [16] 100 % of control | [13] 104 % of control | [15] 108 % of control

[O-][n+]1c2ccccc2[n+]([O-])c2c3ccccc3[nH]c21
inactive: [3] 95 % of control | [5] 95 % of control | [6] 88 % of control

COC(=O)c1cccc2c1OCO2
inactive: [14] 100 % of control | [15] 100 % of control | dose: 400.0 mg/kg/injection, schedule: Q01DX009 (ip), vehicle: saline with Tween-80 100 % of control

CCCOC(=O)/C=C(\Cl)C(=O)OCCC
inactive: dose: 6.25 mg/kg/injection, schedule: Q01DX009 (ip), vehicle: saline with Tween-80 104 % of control | [17] 109 % of control | [16] 113 % of control

Nc1ncnc2c(C3OC(CO)C(O)C3O)[nH]nc12 (configuration not stated)
inactive: dose: 1.25 mg/kg/injection, schedule: Q01DX009 (ip), vehicle: saline 109 % of control | dose: 2.5 mg/kg/injection, schedule: Q01DX009 (ip), vehicle: saline 109 % of control | dose: 5.0 mg/kg/injection, schedule: Q01DX009 (ip), vehicle: saline 118 % of control | dose: 5.56 mg/kg/injection, schedule: Q01DX009 (ip), vehicle: saline 109 % of control | dose: 6.25 mg/kg/injection, schedule: Q01DX009 (ip), vehicle: saline sonified 104 % of control | dose: 8.33 mg/kg/injection, schedule: Q01DX009 (ip), vehicle: saline 90 % of control | dose: 12.0 mg/kg/injection, schedule: Q01DX009 (ip), vehicle: saline sonified 105 % of control | dose: 12.5 mg/kg/injection, schedule: Q01DX009 (ip), vehicle: saline 122 % of control | dose: 18.7 mg/kg/injection, schedule: Q01DX009 (ip), vehicle: saline 90 % of control

NCCCC(C(=O)O)N(C(=O)OCc1ccccc1)C(=O)OCc1ccccc1 (configuration not stated)
inactive: [3] 97 % of control | [5] 101 % of control | [6] 90 % of control

CCOC(=O)CCC(C(=O)c1cccnc1)c1ccccn1 (configuration not stated)
inactive: dose: 100.0 mg/kg/injection, schedule: Q01DX001 (ip), vehicle: saline 104 % of control | dose: 200.0 mg/kg/injection, schedule: Q01DX001 (ip), vehicle: saline 101 % of control | dose: 400.0 mg/kg/injection, schedule: Q01DX001 (ip), vehicle: saline 99 % of control

CN(C)CCO[Si](C)(c1ccccc1)c1ccc(F)cc1 (configuration not stated)
inactive: [17] 100 % of control | [16] 101 % of control | [13] 98 % of control and 101 % of control | [14] 99 % of control | [15] 114 % of control

CCCCCCCCCCCC[N+]1(CC)CCCC1
inactive: dose: 1.56 mg/kg/injection, schedule: Q01DX009 (ip), vehicle: saline 100 % of control | dose: 3.12 mg/kg/injection, schedule: Q01DX009 (ip), vehicle: saline 98 % of control and 92 % of control | dose: 6.25 mg/kg/injection, schedule: Q01DX009 (ip), vehicle: saline 86 % of control

Source: PubChem BioAssay AID330 (DTP/NCI, 2004)
